# “Also recorded” adds a separate entry of the source.
# Columns and labels:
# KBM7 cells [1] = experiment: Viability/proliferation of wild type and ATPIF1 null KBM7 cells treated with mitochondrial poisons (7-AAD, FACS); assay type: cell-based, human; settings: for resistance of ATPIF1 null KBM7 cells to the poison: viability four days later, FIG. 1C-D, FIG. 2
# From the text: In order to identify potential drug targets for treatment of mitochondrial disorders, we decided to use inhibitors of oxidative phosphorylation (OXPHOS) to model mitochondrial diseases and search for genes, loss-of-function of which can confer resistance to mitochondrial dysfunction caused by the poison. To that end, we explored use of a screening platform based on gene inactivation in human cells using insertional mutagenesis that has recently been developed using the KBM7 CML cell line, which is haploid for all chromosomes except chromosome 8 (5). In this system, insertional mutagenesis is accomplished using a gene trap vector. […]
# For the viability assays described in this Example and Example 2, 200,000 cells were used for each sample. Cells were treated with the desired concentration of drug and viability was assessed four days later using 7-AAD and FACS analysis.
# (§1) Suspension cells were kept on ice, then spun at 4000 rpm for 5 minutes at 4° C. in a table-top microcentrifuge, supernatant aspirated, cells washed once with ice-cold PBS, resuspended in ice-cold PBS with 2 ug/mL 7-AAD viability dye, incubated for 5 minutes on ice, and analyzed by FACS. For adherent cells, the overlying media and PBS used for pre-trypsinization washes was collected and combined with the suspension of trypsinized cells to gather any dead cells that may have detached into the media. The cell suspensions were kept on ice, spun at 1500 rpm for 5 minutes at 4° C. in a swinging bucket centrifuge, supernatant aspirated, cells washed once with ice-cold PBS, resuspended in ice-cold PBS with 2 ug/mL 7-AAD viability dye, incubated for 5 minutes on ice, and analyzed by FACS. Viability was assessed by 7-AAD exclusion. For HeLa, SH-SY5Y, and Malme-3M cells, 500-2,000 cells were seeded per well of white, clear-bottom 96-well plates (Greiner Bio-One), treated with drugs, and then analyzed using CellTiter-Glo according to the manufacturer's instructions (Promega). For primary hepatocytes, 100,000 cells were seeded per well of a 24-well TPP plate (Light Labs), treated with antimycin, and then analyzed using CellTiter-Glo.
# KBM7 cells [2] = experiment: Mitochondrial membrane potential (TMRM staining, FACS) in WT and ATPIF1 KO KBM7 cells; assay type: cell-based, human; settings: for rescue by loss of ATPIF1 of the loss of mitochondrial membrane potential caused by the poison: FIG. 4, TMRM
# Method: Membrane potential was assessed using tetramethyl rhodamine methyl ester (TMRM). For the TMRM time course: 200,000 cells were used for each time point. Cells were treated with 121 uM antimycin and incubated in 25 nM TMRM (final concentration) in IMDM 20 minutes from the end of their time point at 37° C. and then analyzed by FACS analysis. Dead cells were excluded using 7-AAD.
# (§2) 200,000 cells were stained with 25 nM TMRM dye (Invitrogen) in parent media of cells. In the case of adherent cells, 10 uM verapamil (Sigma-Aldrich) was added to help retention of the dye. For suspension cells, the incubation of the dye was done for 30 minutes at 37° C., whereas for adherent cells, the incubation was done for 1 hour at 37° C. Suspension cells were kept on ice, then spun at 4000 rpm for 5 minutes at 4° C. in a table-top microcentrifuge, supernatant aspirated, cells washed once with ice-cold PBS, resuspended in ice-cold PBS with 2 ug/mL 7-AAD viability dye, incubated for 5 minutes on ice, and analyzed by FACS. Only 7-AAD negative live cells were analyzed. Adherent cells were first trypsinized, kept on ice, spun at 4000 rpm for 5 minutes at 4° C. in a table-top microcentrifuge, supernatant aspirated, cells washed once with ice-cold PBS, resuspended in ice-cold PBS with 2 ug/mL 7-AAD viability dye, incubated for 5 minutes on ice, and analyzed by FACS. Only 7-AAD negative live cells were analyzed.
# (§3) FACS assays. For measurements of ΔΨm, 100,000 cells were incubated with TMRM (25 nM) and the indicated amounts of drugs for the indicated amounts of time before collection. For measurements of mitochondrial mass, 100,000 cells were incubated with MitoTracker Green FM (50 nM) for one hour. For primary hepatocytes, cells were assayed in suspension immediately after harvest from the liver and incubated with verapamil (20 μM) to facilitate retention of TMRM and MitoTracker Green FM signals. Afterwards, cells were collected by centrifugation, washed once with PBS, and resuspended in PBS with 7-AAD (2 μg/mL) for analysis. KBM7 cells and primary hepatocytes were centrifuged at 2000 rpm for 5 minutes and 500 rpm for 5 minutes at 4° C., respectively.
# KBM7 cells [3] = experiment: Cellular ATP (CellTiterGlo) in WT and ATPIF1 KO KBM7 cells; assay type: cell-based, human
# Method: (§4) Equal numbers of cells were plated and ATP was determined using a CellTiterGlo assay (Promega) according to the manufacturer's instructions.
# KBM7 cells [4] = experiment: Metabolite profiling of WT and IF1 KO KBM7 cells after antimycin treatment; assay type: cell-based, human; settings: after 1 hour of antimycin treatment; FIG. 7D as printed
# Method: 4 million KBM7 cells were centrifuged at 1500 rpm for 4 minutes at 4° C. in a swinging bucket centrifuge after the desired drug treatments. The supernatant was decanted and the cell pellet kept on dry ice. Each cell pellet was washed twice with ice-cold PBS. 3 mL of 80% ice-cold MeOH was then added to each pellet and the pellet vigorously resuspended. Samples were then submitted to the Broad Institute Metabolomics Platform for further processing and analysis.
# Malme-3M cells = experiment: Viability of Malme-3M cells overexpressing ATPIF1 treated with antimycin (CellTiter-Glo); assay type: cell-based; settings: antimycin for 4 days; FIG. 7G
# Method: as §1, with “CellTiter-Glo. […]” for “CellTiter-Glo.”
# primary hepatocytes = experiment: ATP, ΔΨm and viability of WT and ATPIF1−/− primary hepatocytes treated with antimycin; assay type: cell-based, mice
# Method: as §4, §1
# as §3, with “KBM7 cells and primary hepatocytes were centrifuged at 2000 rpm for 5 minutes and 500 rpm for 5 minutes at 4° C., respectively.” left out
# COX1 mutant cells = experiment: MMP and viability of cybrid cells with mtDNA from a patient with a deficiency in COX1; assay type: cell-based, human; settings: FIG. 7E
# Method: as §2
# (§5) Suspension cells were kept on ice, then spun at 4000 rpm for 5 minutes at 4° C. in a table-top microcentrifuge, supernatant aspirated, cells washed once with ice-cold PBS, resuspended in ice-cold PBS with 2 ug/mL 7-AAD viability dye, incubated for 5 minutes on ice, and analyzed by FACS. […] Viability was assessed by 7-AAD exclusion. […]
# [5] = tested on: cybrid cells having mtDNA derived from a normal (WT) subject; experiment: MMP and viability of cybrid cells with mtDNA from a normal (WT) subject; assay type: cell-based, human; settings: FIG. 7E
# Method: as §2, §5
compound,measurement,setting,value
antimycin A,proliferation of clone 18 (ATPIF1 null) KBM7 cells,"KBM7 cells [1]; antimycin A 121 μm, FIG. 1D",clone 18 cells continue proliferating
same,proliferation of wild type KBM7 cells,"KBM7 cells [1]; antimycin A 121 μm, FIG. 1D",wild type cells cease proliferating
same,resistance of ATPIF1 null KBM7 cells to the poison,KBM7 cells [1]; 7-AAD,marked resistance
same,rescue by loss of ATPIF1 of the loss of mitochondrial membrane potential caused by the poison,KBM7 cells [2],rescued (in part)
same,MMP in IF1 KO KBM7 cells,"KBM7 cells [2]; antimycin exposure, FIG. 7B",significant recovery in MMP after loss of MMP
same,recovery of MMP in WT KBM7 cells,"KBM7 cells [2]; antimycin exposure, FIG. 7B",WT cells did not
same,ATP levels of ATPIF1 null vs WT KBM7 cells following antimycin treatment,KBM7 cells [3]; FIG. 3A,significantly lower levels of initial ATP compared to WT cells
same,ATP levels in IF1 KO KBM7 cells,"KBM7 cells [3]; antimycin exposure, FIG. 7B",decreased significantly
same,ATP levels in WT KBM7 cells,"KBM7 cells [3]; antimycin exposure, FIG. 7B",not in WT cells
same,"glycolytic metabolites (DHAP, glyceraldehyde 3P, F6P), IF1 KO vs WT KBM7 cells",KBM7 cells [4],more depletion of glycolytic metabolites
same,sensitivity of Malme-3M cells overexpressing ATPIF1,Malme-3M cells,increased their sensitivity to antimycin
same,"cellular ATP, ATPIF1−/− vs WT hepatocytes","primary hepatocytes; antimycin 0.625 μM for 1.5 hours, FIG. 11B",greater decrease in cellular ATP
same,"cell viability, ATPIF1−/− vs WT hepatocytes","primary hepatocytes; antimycin 1.25 μM for 2 days, FIG. 11D",increased cell viability relative to WT hepatocytes
same,"ΔΨm, ATPIF1−/− vs WT hepatocytes","primary hepatocytes; antimycin 10 μM for 1.5 hours, FIG. 11C",greater increase in ΔΨm
O=C(CC(=O)C(F)(F)F)c1cccs1 [TTFA],resistance of ATPIF1 null KBM7 cells to the poison,KBM7 cells [1]; 7-AAD,resistant
CC[C@H]1/C=C/C=C/C[C@@H](C)[C@H](O)[C@@](C)(O)C(=O)[C@@H](C)[C@H](O)[C@@H](C)C(=O)[C@@H](C)[C@H](O)[C@@H](C)/C=C/C(=O)O[C@@H]2[C@H](C)[C@H](CC1)O[C@]1(CC[C@H](C)[C@H](C[C@@H](C)O)O1)[C@H]2C [oligomycin],survival of antimycin-treated IF1 KO KBM7 cells on addition of oligomycin,"KBM7 cells [1]; oligomycin added to antimycin, 7-AAD, FIG. 7D",decreased survival
same,rescue by loss of ATPIF1 of the loss of mitochondrial membrane potential caused by the poison,KBM7 cells [2],not rescued
same,MMP (ΔΨm) of antimycin-treated IF1 KO KBM7 cells on addition of oligomycin,KBM7 cells [2]; oligomycin added to antimycin,completely prevents IF1 KO cells from rescuing their MMP; also recorded: decreased ΔΨm
same,ATP of antimycin-treated IF1 KO KBM7 cells on addition of oligomycin,KBM7 cells [3]; oligomycin added to antimycin,completely prevents IF1 KO cells from rescuing their MMP and using ATP; also recorded: increased ATP levels
same,MMP of cells having patient-derived (COX1 deficient) mtDNA,COX1 mutant cells,dramatic decrease in MMP
same,viability of cells having patient-derived (COX1 deficient) mtDNA,COX1 mutant cells,kills the cells having patient-derived mtDNA
same,MMP and viability of cells having mtDNA derived from healthy subjects (WT),[5],not cells having mtDNA derived from healthy subjects
"N#CC(C#N)=NNc1ccc(OC(F)(F)F)cc1 [FCCP, carbonylcyanide p-trifluoromethoxyphenylhydrazone]",resistance of ATPIF1 null KBM7 cells to the poison,KBM7 cells [1]; 7-AAD,resistant

# — patent publication US20150065556A1, “THERAPEUTIC TARGETS FOR MITOCHONDRIAL DISORDERS” (Whitehead Institute for Biomedical Research, priority 2013, published 2015)
